Assay results published in US20240342159A1, “VALBENAZINE FOR USE IN THE ADD-ON TREATMENT OF SCHIZOPHRENIA” (Neurocrine Biosciences, Inc., priority 2021, published 2024).

Assays:
CYP2D6 = CYP2D6 (Homo sapiens, UniProt P10635); test: metabolism of NBI-98782 by CYP2D6; type: in vitro ADME
[1] = central nervous system, respiratory and cardiovascular safety pharmacology studies; type: in vivo; conditions: compared with human exposure
adults with TD = test: adverse reactions in 3 placebo-controlled studies in adults with tardive dyskinesia; type: in vivo, human; conditions: 6-week treatment
rats [2] = test: carcinogenicity study, rats; type: in vivo, rat
[3] = embryo/fetal development study, rats; type: in vivo, rat; conditions: rat, in vivo
Protocol: (§1) The NOAEL for embryo/fetal development in rats and rabbits was 15 mg/kg/day and 50 mg/kg/day, respectively. […] Valbenazine was negative in genotoxicity assays (in vitro Ames and chromosomal aberration assays and an in vivo rat micronucleus test).

rats [4] = test: embryo/fetal development study, rats; type: in vivo, rat
Protocol: as §1

mice = test: repeat-dose nonclinical toxicology study, mouse; type: in vivo
rats [5] = test: repeat-dose nonclinical toxicology study, rat; type: in vivo
rat = test: in vivo rat micronucleus test
Protocol: as §1

[6] = clinical safety signals (cardiovascular, laboratory, vital signs, serum prolactin, suicidality); type: in vivo, human
QT interval = QT interval prolongation in clinical use; type: in vivo, human
rat fertility = rat fertility study; type: in vivo; conditions: 10 mg/kg/day
rat fertility study = type: in vivo; conditions: rat, in vivo
[7] = system: pediatric subjects with TS; test: treatment-emergent adverse events in pediatric subjects with Tourette Syndrome; type: in vivo, human; conditions: higher incidence than placebo
From the text: (§2) Common treatment-emergent adverse events (TEAEs) in pediatric subjects with TS with incidence >5% in the valbenazine treatment groups and with a higher incidence than placebo include headache, somnolence, sedation, upper respiratory tract infection, insomnia, fatigue, vomiting, and suicidal ideation. In the entire valbenazine clinical development program as of 10 Apr. 2021, treatment-emergent serious adverse events (SAEs) occurring in 3 or more valbenazine-treated subjects each were schizophrenia, suicidal ideation, chronic obstructive pulmonary disease, syncope, abdominal pain, depression, mental status changes, and schizoaffective disorder.

P-glycoprotein = P-glycoprotein (Homo sapiens, UniProt P08183); test: P-glycoprotein inhibition; type: in vitro ADME; conditions: only at concentrations that could be achieved in the gastrointestinal tract
Sequence of P-glycoprotein (P08183 whole entry): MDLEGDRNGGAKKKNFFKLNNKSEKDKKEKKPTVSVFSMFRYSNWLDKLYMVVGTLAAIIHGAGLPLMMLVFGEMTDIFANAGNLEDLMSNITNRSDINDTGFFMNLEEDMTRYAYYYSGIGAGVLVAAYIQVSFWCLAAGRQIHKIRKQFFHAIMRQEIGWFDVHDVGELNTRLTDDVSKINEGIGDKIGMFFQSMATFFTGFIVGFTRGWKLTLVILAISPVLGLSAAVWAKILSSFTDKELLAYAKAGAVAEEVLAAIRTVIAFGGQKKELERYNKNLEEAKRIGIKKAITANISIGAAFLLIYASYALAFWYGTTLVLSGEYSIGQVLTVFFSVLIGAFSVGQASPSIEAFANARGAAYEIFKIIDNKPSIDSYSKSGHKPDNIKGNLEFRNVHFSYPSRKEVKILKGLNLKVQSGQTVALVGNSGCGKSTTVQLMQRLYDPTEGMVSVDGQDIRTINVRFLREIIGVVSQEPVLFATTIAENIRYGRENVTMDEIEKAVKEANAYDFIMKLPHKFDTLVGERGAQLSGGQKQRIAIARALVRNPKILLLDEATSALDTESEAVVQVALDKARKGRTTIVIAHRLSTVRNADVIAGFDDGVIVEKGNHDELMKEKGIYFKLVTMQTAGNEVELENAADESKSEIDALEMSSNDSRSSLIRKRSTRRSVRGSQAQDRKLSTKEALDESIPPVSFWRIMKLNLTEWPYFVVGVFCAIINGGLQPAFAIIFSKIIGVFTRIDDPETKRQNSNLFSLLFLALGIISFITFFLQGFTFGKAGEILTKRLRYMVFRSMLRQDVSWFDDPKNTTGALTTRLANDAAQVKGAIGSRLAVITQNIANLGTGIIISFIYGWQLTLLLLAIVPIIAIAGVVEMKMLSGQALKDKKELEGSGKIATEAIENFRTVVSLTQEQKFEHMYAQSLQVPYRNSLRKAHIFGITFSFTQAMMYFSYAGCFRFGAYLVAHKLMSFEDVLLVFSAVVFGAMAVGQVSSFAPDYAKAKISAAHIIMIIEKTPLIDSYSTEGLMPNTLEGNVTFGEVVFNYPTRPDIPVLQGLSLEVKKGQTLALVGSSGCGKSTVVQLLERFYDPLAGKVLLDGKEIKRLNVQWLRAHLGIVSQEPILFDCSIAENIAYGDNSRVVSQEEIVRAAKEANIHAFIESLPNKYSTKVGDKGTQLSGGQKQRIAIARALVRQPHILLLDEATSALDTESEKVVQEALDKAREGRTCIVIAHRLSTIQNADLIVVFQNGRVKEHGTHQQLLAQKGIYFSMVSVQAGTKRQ

[8] = system: panel of other drug transporters; test: inhibition of a panel of other drug transporters; type: in vitro ADME
dogs = test: repeat-dose nonclinical toxicology study, dog; type: in vivo
[9] = embryo/fetal development study, rabbits; type: in vivo, rabbit; conditions: rabbit, in vivo
Protocol: as §1

rabbits = test: embryo/fetal development study, rabbits; type: in vivo, rabbit
Protocol: as §1

hemizygous Tg.rasH2 mice = test: carcinogenicity study, hemizygous Tg.rasH2 mice; type: in vivo, mouse
[10] = in vitro chromosomal aberration assay; type: cell-based
Protocol: as §1

[11] = system: valbenazine-treated subjects; test: serious adverse events and deaths in the entire valbenazine clinical development program; type: in vivo, human
From the text: as §2
Ten deaths have been reported in completed and ongoing valbenazine studies conducted by NBI: 9 occurred in adult subjects with TD and 1 adult subject with HD. Eight deaths occurred in subjects taking valbenazine, 1 occurred in a subject taking placebo, and 1 remains blinded.

[12] = system: cytochrome P450 (CYP) enzyme; test: cytochrome P450 (CYP) enzyme inhibition or induction; type: in vitro ADME; conditions: at pharmacologically relevant concentrations
[13] = in vitro Ames genotoxicity assay; type: cell-based
Protocol: as §1

[14] = metabolism of valbenazine by hydrolysis; type: in vitro ADME

Sequence of CYP2D6 (P10635 whole entry): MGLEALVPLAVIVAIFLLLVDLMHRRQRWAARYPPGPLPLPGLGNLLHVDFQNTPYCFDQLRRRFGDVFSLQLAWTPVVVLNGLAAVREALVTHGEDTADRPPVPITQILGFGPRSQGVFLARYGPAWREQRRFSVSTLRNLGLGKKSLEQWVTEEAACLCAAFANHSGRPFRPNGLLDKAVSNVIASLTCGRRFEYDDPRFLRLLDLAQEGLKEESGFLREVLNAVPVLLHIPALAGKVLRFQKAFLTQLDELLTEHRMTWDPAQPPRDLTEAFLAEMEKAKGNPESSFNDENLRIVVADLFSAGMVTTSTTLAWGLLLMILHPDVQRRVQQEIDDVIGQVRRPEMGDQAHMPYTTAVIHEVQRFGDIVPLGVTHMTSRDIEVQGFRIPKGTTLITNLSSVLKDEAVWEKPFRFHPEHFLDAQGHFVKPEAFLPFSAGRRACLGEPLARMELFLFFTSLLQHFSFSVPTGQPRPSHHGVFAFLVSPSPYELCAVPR

With “(+)-α-3-isobutyl-9,10-dimethoxy-1,3,4,6,7,11b-hexahydro-2H-pyrido[2,1-a]isoquinolin-2-ol [NBI-98782]” the subsequent metabolism (CYP2D6) was “metabolized in part by CYP2D6” and the “systemic exposures at the NOAEL in safety pharmacology studies” value [1] was “above those achieved at the highest proposed therapeutic dose in humans”.
With COc1cc2c(cc1OC)[C@H]1C[C@@H](OC(=O)[C@@H](N)C(C)C)[C@H](CC(C)C)CN1CC2 [Valbenazine, L-valine, (2R,3R,11bR)-1,3,4,6,7,11b-hexahydro-9,10-dimethoxy-3-(2-methylpropyl)-2H-benzo[a]quinolizin-2-yl ester] the “incidence of anticholinergic effects (dry mouth, constipation, disturbance in attention, vision blurred, urinary retention)” value (adults with TD) was 5.4%, the “incidence of balance disorders/fall (fall, gait disturbance, dizziness, balance disorder)” value (adults with TD) was 4.1% and the “incidence of somnolence (somnolence, fatigue, sedation)” value (adults with TD) was 10.9%. For the same molecule, the “tumors in carcinogenicity study” value (rats [2]) was “did not increase tumors”, the NOAEL [3] was 15 mg/kg/day and the teratogenicity (rats [4]) was “no evidence of teratogenicity”. The “dose with no adverse effects, repeat-dose toxicology” value (mice) was 60 mg/kg/day, the “dose with no adverse effects, repeat-dose toxicology” value (rats [5]) was 3 mg/kg/day and the “genotoxicity, rat micronucleus test” value (rat) was “negative”. The “cardiovascular, laboratory or vital sign related safety signals” value ([6]; human, in vivo) was “No cardiovascular, laboratory, or vital sign related safety signals”, the suicidality ([6]; human, in vivo) was “does not appear to increase suicidality” and the serum prolactin ([6]; mean changes with placebo considerably smaller) was “Increases in serum prolactin above normal laboratory ranges”. For the same molecule, the “degree of QT prolongation” value (QT interval; at concentrations expected with recommended dosing) was “not clinically significant”, the “QT prolongation with higher valbenazine concentrations” value (QT interval; subjects taking a strong CYP2D6 or CYP3A4 inhibitor, or CYP2D6 poor metabolizers) was “QT prolongation clinically significant” and the “effect on rat fertility” value (rat fertility) was “modest negative effect”. For the same molecule, the NOAEL (rat fertility study) was 3 mg/kg/day, the “incidence of common TEAEs: headache, somnolence, sedation, upper respiratory tract infection, insomnia, fatigue, vomiting, suicidal ideation” value [7] was greater than 5% and the “inhibition of P-glycoprotein” value (P-glycoprotein) was “moderate inhibitor”. The “inhibition of a panel of other drug transporters” value [8] was “not an inhibitor”, the “dose with no adverse effects, repeat-dose toxicology” value (dogs) was 15 mg/kg/day and the NOAEL [9] was 50 mg/kg/day. The teratogenicity (rabbits) was “no evidence of teratogenicity”, the “systemic exposures at the NOAEL in safety pharmacology studies” value [1] was “above those achieved at the highest proposed therapeutic dose in humans” and the “tumors in carcinogenicity study” value (hemizygous Tg.rasH2 mice) was “did not increase tumors”. The “genotoxicity, chromosomal aberration assay” value [10] was “negative”, the “relationship of deaths to study drug” value ([11]; all ten deaths) was “not related or unlikely related” and the “deaths in subjects taking valbenazine” value ([11]; of ten deaths in completed and ongoing studies) was “Eight”. For the same molecule, the “CYP enzyme inhibition or induction” value [12] was “little or no cytochrome P450 (CYP) enzyme inhibition or induction”, the “genotoxicity, Ames assay” value [13] was “negative” and the metabolic pathway [14] was “metabolized by hydrolysis to NBI-98782”.
